The record followed here is patent US10758534B2 (Vertex Pharmaceuticals Incorporated, priority 2014, dated 2020).

In this assay the target is T1, F508del (Homo sapiens, UniProt P13569, DEL508-508).
T1 construct: expressed in transfected cells
As to the kind of experiment: Protocol 1: membrane potential optical assay (FLIPR III, voltage sensing dye), identification of potentiator compounds. In kind it is cell-based. To be noted: Table 3, compounds of Table 1. In short, it runs like this:
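NIH 3T3 fibroblasts stably expressing F508del were cultured at 27° C for 24 hrs for temperature correction, then treated with compounds or DMSO and loaded with a voltage-sensing redistribution dye. Forskolin added with a Cl⁻ gradient activated the channel; membrane-potential fluorescence on FLIPR III reported increased gating.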

T1 sequence (P13569 with tags, fused parts or gaps DEL508-508): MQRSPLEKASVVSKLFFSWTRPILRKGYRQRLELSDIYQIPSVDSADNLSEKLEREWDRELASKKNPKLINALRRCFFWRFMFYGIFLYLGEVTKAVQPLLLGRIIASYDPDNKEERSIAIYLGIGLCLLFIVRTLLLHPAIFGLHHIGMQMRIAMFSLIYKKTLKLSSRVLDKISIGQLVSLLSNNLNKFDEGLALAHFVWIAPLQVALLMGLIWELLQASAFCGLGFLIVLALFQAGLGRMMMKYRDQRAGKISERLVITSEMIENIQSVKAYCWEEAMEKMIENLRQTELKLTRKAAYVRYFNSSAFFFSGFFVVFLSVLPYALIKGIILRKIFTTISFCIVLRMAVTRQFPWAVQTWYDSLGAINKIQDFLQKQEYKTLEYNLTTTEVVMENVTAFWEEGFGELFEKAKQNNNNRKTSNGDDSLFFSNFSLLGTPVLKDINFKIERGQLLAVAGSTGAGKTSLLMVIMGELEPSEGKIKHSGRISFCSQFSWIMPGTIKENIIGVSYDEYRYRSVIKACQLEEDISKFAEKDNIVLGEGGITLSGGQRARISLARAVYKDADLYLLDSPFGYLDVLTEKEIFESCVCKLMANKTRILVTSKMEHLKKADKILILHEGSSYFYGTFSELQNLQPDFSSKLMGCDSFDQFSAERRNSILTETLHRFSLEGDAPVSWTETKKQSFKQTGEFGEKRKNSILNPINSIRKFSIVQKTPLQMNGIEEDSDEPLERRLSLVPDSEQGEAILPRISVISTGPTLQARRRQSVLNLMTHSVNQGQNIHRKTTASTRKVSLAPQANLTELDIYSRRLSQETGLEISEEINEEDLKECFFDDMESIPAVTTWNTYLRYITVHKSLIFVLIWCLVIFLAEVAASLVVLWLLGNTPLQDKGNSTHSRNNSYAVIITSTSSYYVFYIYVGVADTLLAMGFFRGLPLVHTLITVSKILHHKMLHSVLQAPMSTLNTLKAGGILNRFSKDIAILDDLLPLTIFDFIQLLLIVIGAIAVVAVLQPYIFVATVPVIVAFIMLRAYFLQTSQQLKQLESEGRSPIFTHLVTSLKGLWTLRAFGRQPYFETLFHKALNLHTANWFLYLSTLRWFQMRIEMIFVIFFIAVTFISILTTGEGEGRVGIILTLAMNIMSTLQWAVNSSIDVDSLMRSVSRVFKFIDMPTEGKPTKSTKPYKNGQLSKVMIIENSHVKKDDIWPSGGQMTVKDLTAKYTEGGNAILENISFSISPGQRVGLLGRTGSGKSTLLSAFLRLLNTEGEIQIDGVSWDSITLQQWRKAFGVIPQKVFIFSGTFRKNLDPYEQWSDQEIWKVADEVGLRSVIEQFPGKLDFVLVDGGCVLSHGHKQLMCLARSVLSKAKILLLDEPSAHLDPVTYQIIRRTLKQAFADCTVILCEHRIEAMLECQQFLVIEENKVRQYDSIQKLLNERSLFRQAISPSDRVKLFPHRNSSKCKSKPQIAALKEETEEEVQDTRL

On to `Cc1cc(N)nc(S(=O)(=O)NC(=O)c2ccc(-c3cc(F)cc(OCC(C)C)c3)nc2N2C[C@@H](C)CC2(C)C)c1` [Compound 1472, N-[(6-amino-4-methyl-2-pyridyl)sulfonyl]-6-(3-fluoro-5-isobutoxy-phenyl)-2-[(4S)-2,2,4-trimethylpyrrolidin-1-yl]pyridine-3-carboxamide], for which the EC30 entry is listed as “+++ (“+++” means <3 uM)”.

Turning to `CC(C)COc1cc(F)cc(-c2ccc(C(=O)NS(=O)(=O)c3cccc(N)n3)c(N3[C@@H]4CCC[C@H]3CC4)n2)c1` [Compound 934, N-[(6-amino-2-pyridyl)sulfonyl]-2-[(1R,5S)-8-azabicyclo[3.2.1]octan-8-yl]-6-(3-fluoro-5-isobutoxy-phenyl)pyridine-3-carboxamide], the EC30 entry is recorded as “+++ (“+++” means <3 uM)”.

Take `Cc1cc(C)c(Oc2nc(-c3cnn(CC(C)C)c3)ccc2C(=O)NS(=O)(=O)c2cccc(N)n2)c(C)c1` [Compound 1177, N-[(6-amino-2-pyridyl)sulfonyl]-6-(1-isobutylpyrazol-4-yl)-2-(2,4,6-trimethylphenoxy)pyridine-3-carboxamide]: the EC30 entry is “++ (“++” means between 3 uM and 10 uM)”.

Consider `CC(C)COc1cc(F)cc(-c2ccc(C(=O)NS(=O)(=O)c3cccc(N)n3)c(N3[C@H](C)CCC3(C)C)n2)c1` [Compound 1166, N-[(6-amino-2-pyridyl)sulfonyl]-6-(3-fluoro-5-isobutoxy-phenyl)-2-[(5R)-2,2,5-trimethylpyrrolidin-1-yl]pyridine-3-carboxamide], for which the EC30 entry was “+++ (“+++” means <3 uM)”.

In the case of `COc1cc(-c2ccc(C(=O)NS(=O)(=O)c3cccc(N)n3)c(N3C[C@@H](C)CC3(C)C)n2)cc(C)n1` [Compound 1748, N-[(6-amino-2-pyridyl)sulfonyl]-6-(2-methoxy-6-methyl-4-pyridyl)-2-[(4S)-2,2,4-trimethylpyrrolidin-1-yl]pyridine-3-carboxamide], the EC30 entry is given as “+++ (“+++” means <3 uM)”.

Turning to `Cc1cc(C)c(Cn2nc(C(C)(C)C)cc2C(=O)NS(=O)(=O)c2ccccc2N)c(C)c1` [Compound 1167, N-(2-aminophenyl)sulfonyl-5-tert-butyl-2-[(2,4,6-trimethylphenyl)methyl]pyrazole-3-carboxamide], the EC30 result is given as “+++ (“+++” means <3 uM)”.

For the compound `CC(CO)Oc1ccc(-c2ccc(C(=O)NS(=O)(=O)c3cccc(N)n3)c(N3[C@H](C)CC[C@@H]3C)n2)cn1` (stereo partly drawn) [Compound 998, N-[(6-amino-2-pyridyl)sulfonyl]-2-[(2S,5R)-2,5-dimethylpyrrolidin-1-yl]-6-[6-(2-hydroxy-1-methyl-ethoxy)-3-pyridyl]pyridine-3-carboxamide], the EC30 result was “++ (“++” means between 3 uM and 10 uM)”.

As for `C[C@@H]1CC[C@H](C)N1c1nc(-c2ccc(OC(F)F)nc2)ccc1C(=O)NS(=O)(=O)c1cccc(N)n1` [Compound 1679, N-[(6-amino-2-pyridyl)sulfonyl]-6-[6-(difluoromethoxy)-3-pyridyl]-2-[(2S,5R)-2,5-dimethylpyrrolidin-1-yl]pyridine-3-carboxamide], the EC30 result is recorded as “+++ (“+++” means <3 uM)”.

In the case of `CC(C)Cn1cc(-c2ccc(C(=O)NS(=O)(=O)c3nccnc3N)c(N3CCC(C)CC3)n2)cn1` [Compound 1288, N-(3-aminopyrazin-2-yl)sulfonyl-6-(1-isobutylpyrazol-4-yl)-2-(4-methyl-1-piperidyl)pyridine-3-carboxamide], the EC30 result is “++ (“++” means between 3 uM and 10 uM)”.

With `CC(C)COc1cc(F)cc(-c2ccc(C(=O)NS(=O)(=O)c3ccn[nH]3)c(N3CCC(C)CC3)n2)c1` [Compound 1083, 6-(3-fluoro-5-isobutoxy-phenyl)-2-(4-methyl-1-piperidyl)-N-(1H-pyrazol-5-ylsulfonyl)pyridine-3-carboxamide], the EC30 entry is on record as “+++ (“+++” means <3 uM)”.

In the case of `CC1CN(c2nc(-c3cccc(OCC(C)(C)C)n3)ccc2C(=O)NS(=O)(=O)c2cccc(N)n2)C(C)(C)C1` (stereo not drawn) [Compound 1062, N-[(6-amino-2-pyridyl)sulfonyl]-6-[6-(2,2-dimethylpropoxy)-2-pyridyl]-2-(2,2,4-trimethylpyrrolidin-1-yl)pyridine-3-carboxamide], the EC30 result is listed as “+++ (“+++” means <3 uM)”.

For the compound `C[C@@H]1CN(c2nc(C(C)(C)C)c(/C=C/C3CCCCC3)cc2C(=O)NS(=O)(=O)c2cccc(N)n2)C(C)(C)C1` [Compound 1484, N-[(6-amino-2-pyridyl)sulfonyl]-6-tert-butyl-5-[(E)-2-cyclohexylvinyl]-2-[(4S)-2,2,4-trimethylpyrrolidin-1-yl]pyridine-3-carboxamide], the EC30 entry is given as “+++ (“+++” means <3 uM)”.

With `CC1CN(c2nc(C(C)(C)C)c(C3=CCC4(CC3)OCCO4)cc2C(=O)NS(=O)(=O)c2cccc(N)n2)C(C)(C)C1` (stereo not drawn) [Compound 1459, N-[(6-amino-2-pyridyl)sulfonyl]-6-tert-butyl-5-(1,4-dioxaspiro[4.5]dec-8-en-8-yl)-2-(2,2,4-trimethylpyrrolidin-1-yl)pyridine-3-carboxamide], the EC30 result was “+++ (“+++” means <3 uM)”.

Consider `Cc1cc(C)c(Oc2nc(-c3ccccc3)ccc2C(=O)NS(=O)(=O)c2cccc(NCCN(C)C)n2)c(C)c1` [Compound 1122, N-[[6-(2-dimethylaminoethylamino)-2-pyridyl]sulfonyl]-6-phenyl-2-(2,4,6-trimethylphenoxy)pyridine-3-carboxamide], for which the EC30 result is “++ (“++” means between 3 uM and 10 uM)”.

Regarding `C[C@@H]1CN(c2ncccc2C(=O)NS(=O)(=O)c2cccc(N)n2)C(C)(C)C1` [Compound 946, N-[(6-amino-2-pyridyl)sulfonyl]-2-[(4S)-2,2,4-trimethylpyrrolidin-1-yl]pyridine-3-carboxamide], the EC30 result was “++ (“++” means between 3 uM and 10 uM)”.

Turning to `COc1ccc(Oc2cccc(S(=O)(=O)NC(=O)c3cccnc3N3CC(C)CC3(C)C)n2)cc1OC` (stereo not drawn) [Compound 1761, N—[[6-(3,4-dimethoxyphenoxy)-2-pyridyl]sulfonyl]-2-(2,2,4-trimethylpyrrolidin-1-yl)pyridine-3-carboxamide], the EC30 result was “++ (“++” means between 3 uM and 10 uM)”.

Regarding `CC1CN(c2nc(C(C)(C)C)c(C3=CCC(C(=O)O)CC3)cc2C(=O)NS(=O)(=O)c2cccc(N)n2)C(C)(C)C1` (stereo not drawn) [Compound 1381, 4-[5-[(6-amino-2-pyridyl)sulfonylcarbamoyl]-2-tert-butyl-6-(2,2,4-trimethylpyrrolidin-1-yl)-3-pyridyl]cyclohex-3-ene-1-carboxylic acid], the EC30 entry was “++ (“++” means between 3 uM and 10 uM)”.

As for `COc1ccc(C(=O)NS(=O)(=O)c2cccc(N)n2)c(Oc2c(C)cc(C)cc2C)n1` [Compound 806, N-[(6-amino-2-pyridyl)sulfonyl]-6-methoxy-2-(2,4,6-trimethylphenoxy)pyridine-3-carboxamide], the EC30 entry is “++ (“++” means between 3 uM and 10 uM)”.

`CCOc1cc(C)cc(-c2ccc(C(=O)NS(=O)(=O)c3ccc[nH]c3=O)c(Oc3c(C)cc(C)cc3C)n2)n1` [Compound 1768, 6-(6-ethoxy-4-methyl-2-pyridyl)-N-[(2-oxo-1H-pyridin-3-yl)sulfonyl]-2-(2,4,6-trimethylphenoxy)pyridine-3-carboxamide]: the EC30 result is “++ (“++” means between 3 uM and 10 uM)”.

As to `C[C@@H]1CN(c2nc(C3CCOCC3)ccc2C(=O)NS(=O)(=O)c2cccc(N)n2)C(C)(C)C1` [Compound 1595, N-[(6-amino-2-pyridyl)sulfonyl]-6-tetrahydropyran-4-yl-2-[(4S)-2,2,4-trimethylpyrrolidin-1-yl]pyridine-3-carboxamide], the EC30 entry is “+++ (“+++” means <3 uM)”.

For `C[C@@H]1CN(c2nc(C(C)(C)C)c(/C=C/C(C)(C)C)cc2C(=O)NS(=O)(=O)c2cccc(N)n2)C(C)(C)C1` [Compound 1613, N-[(6-amino-2-pyridyl)sulfonyl]-6-tert-butyl-5-[(E)-3,3-dimethylbut-1-enyl]-2-[(4S)-2,2,4-trimethylpyrrolidin-1-yl]pyridine-3-carboxamide], the EC30 result is listed as “+++ (“+++” means <3 uM)”.

With `CC1CN(c2ncccc2C(=O)NS(=O)(=O)c2cccc(Nc3cccc(Cl)c3)n2)C(C)(C)C1` (stereo not drawn) [Compound 1841, N—[[6-(3-chloroanilino)-2-pyridyl]sulfonyl]-2-(2,2,4-trimethylpyrrolidin-1-yl)pyridine-3-carboxamide], the EC30 result is listed as “+++ (“+++” means <3 uM)”.

Take `CC(C)COc1cc(F)cc(-c2ccc(C(=O)NS(=O)(=O)c3cccc(N)n3)c(N3C[C@@H](C)C[C@H](C)C3)n2)c1` [Compound 1210, N-[(6-amino-2-pyridyl)sulfonyl]-2-[(3S,5S)-3,5-dimethyl-1-piperidyl]-6-(3-fluoro-5-isobutoxy-phenyl)pyridine-3-carboxamide]: the EC30 entry is “+++ (“+++” means <3 uM)”.

Turning to `CC(C)COc1cc(F)cc(-c2ccc(C(=O)NS(=O)(=O)c3cccc(N)n3)c(OCCCCc3ccncc3)n2)c1` [Compound 1687, N-[(6-amino-2-pyridyl)sulfonyl]-6-(3-fluoro-5-isobutoxy-phenyl)-2-[4-(4-pyridyl)butoxy]pyridine-3-carboxamide], the EC30 entry is recorded as “+++ (“+++” means <3 uM)”.

As for `COc1ccc(OC)c(-c2ccc(C(=O)NS(=O)(=O)c3cccc(N)n3)c(Oc3c(C)cc(C)cc3C)n2)c1` [Compound 1225, N-[(6-amino-2-pyridyl)sulfonyl]-6-(2,5-dimethoxyphenyl)-2-(2,4,6-trimethylphenoxy)pyridine-3-carboxamide], the EC30 result is on record as “+++ (“+++” means <3 uM)”.

As for `Cc1cc(C)c(Oc2nc(-c3ccccn3)ccc2C(=O)NS(=O)(=O)c2cccc(N)n2)c(C)c1` [Compound 1278, N-[(6-amino-2-pyridyl)sulfonyl]-6-(2-pyridyl)-2-(2,4,6-trimethylphenoxy)pyridine-3-carboxamide], the EC30 result was “+ (“+” means greater than 10 uM)”.

For `Cc1cc(C)c(Oc2nc3c(cc2C(=O)NS(=O)(=O)c2ccc[nH]c2=O)CCC(C)(C)C3)c(C)c1` [Compound 1199, 7,7-dimethyl-N-[(2-oxo-1H-pyridin-3-yl)sulfonyl]-2-(2,4,6-trimethylphenoxy)-6,8-dihydro-5H-quinoline-3-carboxamide], the EC30 result is “++ (“++” means between 3 uM and 10 uM)”.
